Measured values as given in US5103018A, “Mitomycin derivatives” (Kyowa Hakko Kogyo Kabushiki Kaisha, priority 1986, dated 1992).
≈ marks a conversion by molar mass, not a printed value.

Assays:
Sarcoma 180 solid tumour = assay: animal or person; assay type: in vivo, mice (ddy strain); details: for ED50: Mus musculus, Sarcoma-180, ip, 168 h, read-out: ED50 ip
Text: (§1) Certain compounds were selected from Compounds I. The following Table 4 indicates anti-tumour activity against Sarcoma 180 solid tumour (ED50), acute toxicity (LD50) and effects on the peripheral leucocytes (WBC4000) of each compound.
(1) Effect against Sarcoma 180 solid tumour:
5×10^6 cells of Sarcoma 180 solid tumour cells were abdominally implanted into male mice of ddy strain. 7 days after this, ascites cells were sampled. The cells were washed once with a sterilized physiological solution of sodium chloride and were used to prepare a cell suspension containing 5×10^7 cells per ml. On each occasion, 0.1 ml of the cell suspension was subcutaneously implanted into the right armpit of a male mouse (ddy strain; body weight 20±2 g). 24 hours after the implantation of the tumour cells, the test compound which was dissolved in a physiological solution of sodium chloride with or without addition of Tween 80 was abdominally administered to each mouse of a group consisting of 5 animals at a does of 0.1-0.2 ml. The anti-tumour activity was determined as follows:
7 days after the implantation, the major axis (a) and the minor axis (b) of the tumour were measured to calculate a value of "a×b^2 /2" which corresponds to the volume of the tumour. The anti-tumour activity was expressed by T/C viz. the ratio of the volume of the tumours (T) of the group of animals administered with the test compound to the corresponding volume of tumours (C) of the untreated animals.
(2) Determination of ED50 :
The term ED50 denotes the administered amount needed for reducing the volume of Sarcoma 180 solid tumours in the animals to 50% on the basis of the corresponding volume of Sarcoma 180 solid tumours in control (untreated) animals.
On graph paper, T/C was indicated by an arithmetic scale on the longitudinal axis and the administered amount of test compound was indicated by a logarithmic scale on the lateral axis.

ddy mice = assay: Acute toxicity; assay type: in vivo; details: for C.I. (LD50/ED50) (in words): in comparison with mitomycin C
Protocol: as §1
(§2) Each animal of the test group consisting of 5 ddy mice was once administered (i.p.) with a test compound. […] The LD50 was determined by Behren Korber's method.

peripheral leucocytes = assay: in vivo; assay type: in vivo, mice (ddy strain); details: for WBC4000/ED50 (in words): in comparison with mitomycin C
Protocol: as §1
(§3) (4) Effect upon the number of the peripheral leucocytes:
(§4) Sarcoma 180 solid tumour cells (5×10^6) were subcutaneously implanted into the right armpit of each mouse (body weight 20±2 g) of a group consisting of 5 male mice (ddy strain). 24 hours after implantation,a test compound was abdominally administered to each mouse. 4 days later, blood (each 0.02 ml) was collected from the suborbital plexus vein of each tumour-carrying mouse. The collected sample of blood was dispersed in 9.98 ml of Cell-kit Seven solution. One drop of saponin solution was added to the sample to dissolve erythrocytes and then a microcell counter was used to measure the number of leucocytes. On graph paper, the number of leucocytes was indicated on the y-axis by an arithmetic scale and the does of the test compound was indicated on the x-axis by a logarithmic scale.
(§5) The relationship between the number of peripheral leucocytes and the dosage of the test compound was plotted to obtain WBC4000 viz. the dosage corresponding to […] per mm^3 (about half of the number of leucocytes of normal mice).

[1] = tested on: Streptococcus faecalis ATCC 10541; assay: Minimum inhibitory concentration, agar dilution method, SF; assay type: cell-based; details: Enterococcus faecalis, ATCC10541, pH 7, read-out: minimum inhibitory concentration, SF
Text: (§6) Certain Compounds I were selected. Table 3 indicates their anti-bacterial activities in terms of their minimum inhibitory concentration (μg/ml), determined by the agar dilution method effected at a pH of 7.0. In this table, the microorganisms used are abbreviated as follows:
SF: Streptococcus faecalis ATCC 10541

[2] = tested on: Staphylococcus aureus ATCC 6583P; assay: Minimum inhibitory concentration, agar dilution method, SA; assay type: cell-based; details: Staphylococcus aureus, ATCC6583P, pH 7, read-out: minimum inhibitory concentration, SA
Text: as §6
SA: Staphylococcus aureus ATCC 6583P

Escherichia coli ATCC 26 = assay: Minimum inhibitory concentration, agar dilution method, EC; assay type: cell-based; details: Escherichia coli, ATCC26, pH 7, read-out: minimum inhibitory concentration, EC
Text: as §6
EC: Escherichia coli ATCC 26

[3] = tested on: Proteus vulgaris ATCC 6897; assay: Minimum inhibitory concentration, agar dilution method, PV; assay type: cell-based; details: Proteus vulgaris, ATCC6897, pH 7, read-out: minimum inhibitory concentration, PV
Text: as §6
PV: Proteus vulgaris ATCC 6897

[4] = tested on: Klebsiella pneumoniae ATCC 10031; assay: microbe, parasite or virus in culture; assay type: cell-based; details: ATCC10031, pH 7, read-out: minimum inhibitory concentration, KP
Text: Certain Compounds I were selected. […] In this table, the microorganisms used are abbreviated as follows:
KP: Klebsiella pneumoniae ATCC 10031

Acute toxicity = assay type: in vivo, mice (ddy); details: mouse, in vivo, ip; for LD50 at 336 h: ddy mice, single i.p., 14 days, Behren Korber's method; for selectivity ratio: read-out: (C.I.)* = (LD50/ED50)/[(LD50/ED50) of MMC1]
Protocol: as §1, §2

in vivo = assay type: in vivo, mice (ddy strain); details: mouse, in vivo, ip; read-out: (WBC4000/ED50)* = (WBC4000/ED50)/[(WBC4000/ED50) of MMC1]
Protocol: as §1, §3, §4, §5

P388 Leukemia = assay: Effect upon Leukemia P 388; assay type: in vivo, mouse (CDF1); details: single i.p., 33 days
Protocol: (5) Effect upon Leukemia P 388:
Ascites cells were collected from P388 Leukemia-carrying mouse (DBA/2) 7 days after the implantation. The number of the cells of P388 Leukemia in the sample was counted. A physiological solution of sodium chloride was sterilized and used to prepare a cell suspension containing 5×10^6 tumour cells per ml. On each occasion, 0.2 ml of the suspension containing 1×10^6 cells was implanted into the abdominal cavity of each mouse (CDF1; body weight 20~25 g). 24 hours after implantation, the test compound was once given to each mouse of a test group consisting of 6 mice by abdominal injection.
The activity of the test samples was determined by the ratio of the average survival days of the treated animals to the average survival days of untreated animals viz. ILS % (Increased Life Span).

Solubility in water = assay type: physicochemical; details: for solubility: water
[5] = Equilibration between mitomycin-type and albomitomycin-type substance in aqueous solution; assay type: physicochemical; details: aqueous solution (5 mg/ml), 25° C., 24 hours
Protocol: In the case wherein the compound of Example 1 described hereinafter was equilibrated by allowing to stand in an aqueous solution (5 mg/ml) at a temperature of 25° C. for 24 hours, the molar ratio of the albomitomycin-type substance was 8.5%.

Lipophilicity = assay type: physicochemical; details: in comparison with mitomycin C
[6] = Stability of isolated compound; assay type: physicochemical

SMILES	ED50 (Sarcoma 180 solid tumour)	LD50 at 336 h (Acute toxicity)	selectivity ratio (Acute toxicity)	C.I. (LD50/ED50) (in words) (ddy mice)	selectivity ratio (in vivo)	WBC4000/ED50 (in words) (peripheral leucocytes)	lipophilicity (in words) (Lipophilicity)	further results
CO[C@]12[C@H](COC(N)=O)[C@H]3C(=O)C(N)=C(C)C(=O)[C@]34N3[C@H]1[C@@H]3CN24 [MM-C 2, albomitomycin C, reference compound]								ED50 ip (Sarcoma 180 solid tumour; ddy mice, i.p. 24 h after implantation, 50% reduction of tumour volume at day 7): 5.4 mg/kg; LD50 ip (ddy mice; ddy mice, single i.p., 14 days, Behren Korber's method): < 12.0 mg/kg; (C.I.)* = (LD50/ED50)/[(LD50/ED50) of MMC1] (ddy mice; relative to mitomycin C, ip): 1.16; (WBC4000/ED50)* = (WBC4000/ED50)/[(WBC4000/ED50) of MMC1] (peripheral leucocytes; relative to mitomycin C, ip, 4 days after dosing): 0.95
CO[C@@]12[C@H](COC(N)=O)C3=C(C(=O)C(C)=C(NCCSSCCNC(=O)CC[C@H](N)C(=O)O)C3=O)N1C[C@@H]1N[C@@H]12 [Compound 1, 7-N-[2-[[2-(N^5 -L-glutamino)ethyl]dithio]ethyl]mitomycin C]	2.7 mg/kg	22.5 mg/kg	2.58	very high	4.12	very high		MIC [1]: 1.6 µg/mL (≈ 2.67 µM); MIC [2]: 0.8 µg/mL (≈ 1.34 µM); MIC (Escherichia coli ATCC 26): > 50 µg/mL; MIC [3]: 0.8 µg/mL (≈ 1.34 µM); MIC [4]: 0.4 µg/mL (≈ 0.668 µM); ILS* (ratio of ILS % to that of mitomycin C) (P388 Leukemia; dose 25 mg/kg): > 2.30; water-solubility (in words) (Solubility in water): good; solubility (Solubility in water): > 20 mg/mL; molar ratio of the albomitomycin-type substance at equilibrium [5]: 8.5%
CO[C@@]12[C@H](COC(N)=O)C3=C(C(=O)C(C)=C(NCCSSCCC(=O)O[C@H]4CC[C@H]5[C@@H]6CCc7cc(OC(=O)c8ccccc8)ccc7[C@H]6CC[C@]45C)C3=O)N1C[C@@H]1N[C@@H]12 [Compound 27, 7-N-[2-[[2-[[17β-(3-benzoyloxy-1,3, 5(10)-estratrienyl)oxy]carbonyl]ethyl]dithio]ethyl]mitomycin C]	4.6 mg/kg	22.5 mg/kg	1.63	superior to mitomycin C	2.43	superior to mitomycin C	superior to mitomycin C	ILS* (ratio of ILS % to that of mitomycin C) (P388 Leukemia; dose 12.5 mg/kg): > 1.53
CC1=C(NCCSSCC(=O)O[C@H]2CC[C@H]3[C@@H]4CCc5cc(OC(=O)c6ccccc6)ccc5[C@H]4CC[C@]23C)C(=O)C2=C(C1=O)N1C[C@H]3[C@H](N3C)[C@]1(O)[C@H]2COC(N)=O (stereo partly drawn) [Compound 28, 7-N-[2-[[[[17β-(3-benzoyloxy-1,3, 5(10)-estratrienyl)oxy]carbonyl]methyl]dithio]ethyl]mitomycin D]	9.9 mg/kg	75 mg/kg	2.53	superior to mitomycin C	1.43	superior to mitomycin C	superior to mitomycin C	ILS* (ratio of ILS % to that of mitomycin C) (P388 Leukemia; dose 25 mg/kg): > 1.67
Cc1c(C)c2c(c(C)c1OC(=O)CCC(=O)NCCSSc1ccccn1)CC[C@@](C)(CCC[C@H](C)CCC[C@H](C)CCCC(C)C)O2 [Compound "n"]								stability (in words) [6]: relatively stable
CC1=C(/C=C/C(C)=C/C=C/C(C)=C/C(=O)NCCSSc2ccccn2)C(C)(C)CCC1 [Compound "m", N-2-(2-pyridyldithio)ethylretinamide]								stability (in words) [6]: unstable
CO[C@@]12[C@H](COC(N)=O)C3=C(C(=O)C(C)=C(NCCSSCC(=O)O[C@H]4CC[C@H]5[C@@H]6CCc7cc(OC(=O)c8ccccc8)ccc7[C@H]6CC[C@]45C)C3=O)N1C[C@@H]1N[C@@H]12 [Compound 26, 7-N-[2-[[[[17β-(3-benzoyloxy-1,3, 5(10)-estratrienyl)oxy]carbonyl]methyl]dithio]ethyl]mitomycin C]	5 mg/kg	18.8 mg/kg	1.27	superior to mitomycin C	2.57	superior to mitomycin C	superior to mitomycin C	ILS* (ratio of ILS % to that of mitomycin C) (P388 Leukemia; dose 6.25 mg/kg): > 1.08
CO[C@@]12[C@H](COC(N)=O)C3=C(C(=O)C(C)=C(NCCSSCCNC(=O)C[C@H](N)C(=O)O)C3=O)N1C[C@@H]1N[C@@H]12 [Compound 6, 7-N-[2-[[2-(N^4 -L-asparagino)ethyl]dithio]ethyl]mitomycin C]	5 mg/kg	26.3 mg/kg	1.81		2.38			MIC [1]: 3.1 µg/mL (≈ 5.3 µM); MIC [2]: 0.8 µg/mL (≈ 1.37 µM); MIC (Escherichia coli ATCC 26): > 50 µg/mL; MIC [3]: 0.8 µg/mL (≈ 1.37 µM); MIC [4]: 0.8 µg/mL (≈ 1.37 µM); solubility (Solubility in water): > 20 mg/mL
